Source: PubChem BioAssay AID1259407 (Chemical Carcinogenesis Research Information System (CCRIS), 2018)
Active and inactive are the calls of the source. The rule behind the calls is not given here.

Tested on: CCRIS mutagenicity, Ames/micronucleus/aberration tests
Assay: CCRIS mutagenicity studies
[1] = Test System: AMES SALMONELLA TYPHIMURIUM, Strain/Indicator: TA98, Metabolic Activation: NONE, Method: PREINCUBATION
[2] = Test System: AMES SALMONELLA TYPHIMURIUM, Strain/Indicator: TA98, Metabolic Activation: NONE, Method: STANDARD PLATE
[3] = Test System: AMES SALMONELLA TYPHIMURIUM, Strain/Indicator: TA98, Metabolic Activation: RAT, LIVER, S-9, AROCLOR 1254, Method: STANDARD PLATE
[4] = Test System: AMES SALMONELLA TYPHIMURIUM, Strain/Indicator: TA100, Metabolic Activation: NONE, Method: PREINCUBATION
[5] = Test System: AMES SALMONELLA TYPHIMURIUM, Strain/Indicator: TA100, Metabolic Activation: NONE, Method: STANDARD PLATE
[6] = Test System: AMES SALMONELLA TYPHIMURIUM, Strain/Indicator: TA100, Metabolic Activation: RAT, LIVER, S-9, AROCLOR 1254, Method: STANDARD PLATE
[7] = Test System: AMES SALMONELLA TYPHIMURIUM, Strain/Indicator: TA1537, Metabolic Activation: NONE, Method: STANDARD PLATE
[8] = Test System: AMES SALMONELLA TYPHIMURIUM, Strain/Indicator: TA1537, Metabolic Activation: RAT, LIVER, S-9, AROCLOR 1254, Method: STANDARD PLATE

Measured: mutagenic call

Nc1cc2nc3ccccc3nc2cc1N
inactive: Test System: AMES SALMONELLA TYPHIMURIUM, Strain/Indicator: TA98(1,8-DNP6), Metabolic Activation: NONE, Method: PREINCUBATION inactive; negative | [1] inactive; negative | Test System: AMES SALMONELLA TYPHIMURIUM, Strain/Indicator: TA100(OAT-), Metabolic Activation: NONE, Method: PREINCUBATION inactive; negative | Test System: AMES SALMONELLA TYPHIMURIUM, Strain/Indicator: TA100(OAT-), Metabolic Activation: S-9, Method: PREINCUBATION inactive; negative | [4] inactive; negative | [5] inactive; negative
active: Test System: AMES SALMONELLA TYPHIMURIUM, Strain/Indicator: TA98(1,8-DNP6), Metabolic Activation: S-9, Method: PREINCUBATION active; positive | [2] active; positive | [3] active; positive | Test System: AMES SALMONELLA TYPHIMURIUM, Strain/Indicator: TA98, Metabolic Activation: S-9, Method: PREINCUBATION active; positive | Test System: AMES SALMONELLA TYPHIMURIUM, Strain/Indicator: TA98, Metabolic Activation: S-9, Method: SUSPENSION/PLATE active; positive | [6] active; positive | Test System: AMES SALMONELLA TYPHIMURIUM, Strain/Indicator: TA100, Metabolic Activation: S-9, Method: PREINCUBATION active; positive | Test System: AMES SALMONELLA TYPHIMURIUM, Strain/Indicator: TA1029, Metabolic Activation: S-9, Method: PREINCUBATION active; positive | [7] active; positive | [8] active; positive | Test System: AMES SALMONELLA TYPHIMURIUM, Strain/Indicator: YG1024, Metabolic Activation: PLANT CELL-FREE EXTRACT, Method: PREINCUBATION active; positive | Test System: AMES SALMONELLA TYPHIMURIUM, Strain/Indicator: YG1024, Metabolic Activation: S-9, Method: PREINCUBATION active; positive | Test System: AMES SALMONELLA TYPHIMURIUM, Strain/Indicator: YG1029, Metabolic Activation: PLANT CELL-FREE EXTRACT, Method: PREINCUBATION active; positive | Test System: AMES SALMONELLA TYPHIMURIUM, Strain/Indicator: YG1029, Metabolic Activation: S-9, Method: PREINCUBATION active; positive

Oc1c(Br)cc(Br)cc1Br
inactive: Test System: AMES SALMONELLA TYPHIMURIUM, Strain/Indicator: TA98, Metabolic Activation: HAMSTER, LIVER, S-9, AROCLOR 1254 (10%), Method: PREINCUBATION inactive; negative | Test System: AMES SALMONELLA TYPHIMURIUM, Strain/Indicator: TA98, Metabolic Activation: HAMSTER, LIVER, S-9, AROCLOR 1254, Method: STANDARD PLATE inactive; negative | [1] inactive; negative | [2] inactive; negative | Test System: AMES SALMONELLA TYPHIMURIUM, Strain/Indicator: TA98, Metabolic Activation: RAT, LIVER, S-9, AROCLOR 1254 (10%), Method: PREINCUBATION inactive; negative | [3] inactive; negative | Test System: AMES SALMONELLA TYPHIMURIUM, Strain/Indicator: TA100, Metabolic Activation: HAMSTER, LIVER, S-9, AROCLOR 1254 (10%), Method: PREINCUBATION inactive; negative | Test System: AMES SALMONELLA TYPHIMURIUM, Strain/Indicator: TA100, Metabolic Activation: HAMSTER, LIVER, S-9, AROCLOR 1254, Method: STANDARD PLATE inactive; negative | [4] inactive; negative | [5] inactive; negative | Test System: AMES SALMONELLA TYPHIMURIUM, Strain/Indicator: TA100, Metabolic Activation: RAT, LIVER, S-9, AROCLOR 1254 (10%), Method: PREINCUBATION inactive; negative | [6] inactive; negative | Test System: AMES SALMONELLA TYPHIMURIUM, Strain/Indicator: TA1535, Metabolic Activation: HAMSTER, LIVER, S-9, AROCLOR 1254 (10%), Method: PREINCUBATION inactive; negative | Test System: AMES SALMONELLA TYPHIMURIUM, Strain/Indicator: TA1535, Metabolic Activation: HAMSTER, LIVER, S-9, AROCLOR 1254, Method: STANDARD PLATE inactive; negative | Test System: AMES SALMONELLA TYPHIMURIUM, Strain/Indicator: TA1535, Metabolic Activation: NONE, Method: PREINCUBATION inactive; negative | Test System: AMES SALMONELLA TYPHIMURIUM, Strain/Indicator: TA1535, Metabolic Activation: NONE, Method: STANDARD PLATE inactive; negative | Test System: AMES SALMONELLA TYPHIMURIUM, Strain/Indicator: TA1535, Metabolic Activation: RAT, LIVER, S-9, AROCLOR 1254 (10%), Method: PREINCUBATION inactive; negative | Test System: AMES SALMONELLA TYPHIMURIUM, Strain/Indicator: TA1535, Metabolic Activation: RAT, LIVER, S-9, AROCLOR 1254, Method: STANDARD PLATE inactive; negative | Test System: AMES SALMONELLA TYPHIMURIUM, Strain/Indicator: TA1537, Metabolic Activation: HAMSTER, LIVER, S-9, AROCLOR 1254 (10%), Method: PREINCUBATION inactive; negative | Test System: AMES SALMONELLA TYPHIMURIUM, Strain/Indicator: TA1537, Metabolic Activation: HAMSTER, LIVER, S-9, AROCLOR 1254, Method: STANDARD PLATE inactive; negative | Test System: AMES SALMONELLA TYPHIMURIUM, Strain/Indicator: TA1537, Metabolic Activation: NONE, Method: PREINCUBATION inactive; negative | [7] inactive; negative | Test System: AMES SALMONELLA TYPHIMURIUM, Strain/Indicator: TA1537, Metabolic Activation: RAT, LIVER, S-9, AROCLOR 1254 (10%), Method: PREINCUBATION inactive; negative | [8] inactive; negative | Test System: AMES SALMONELLA TYPHIMURIUM, Strain/Indicator: TA1538, Metabolic Activation: HAMSTER, LIVER, S-9, AROCLOR 1254, Method: STANDARD PLATE inactive; negative | Test System: AMES SALMONELLA TYPHIMURIUM, Strain/Indicator: TA1538, Metabolic Activation: NONE, Method: STANDARD PLATE inactive; negative | Test System: AMES SALMONELLA TYPHIMURIUM, Strain/Indicator: TA1538, Metabolic Activation: RAT, LIVER, S-9, AROCLOR 1254, Method: STANDARD PLATE inactive; negative | Test System: MOUSE LYMPHOMA, Strain/Indicator: L5178Y (TK+/TK-), Metabolic Activation: RAT, LIVER, S-9, AROCLOR 1254, Method: SUSPENSION/PLATE inactive; negative. reevaluation of results: negative | Test System: Mouse lymphoma, Strain/Indicator: L5178Y (tk+/tk-), Metabolic Activation: Rat, Liver, S-9, Aroclor 1254, Method: Suspension/plate inactive; negative
active: Test System: MOUSE LYMPHOMA, Strain/Indicator: L5178Y (TK+/TK-), Metabolic Activation: NONE, Method: SUSPENSION/PLATE active; positive. reevaluation of results: positive | Test System: Mouse lymphoma, Strain/Indicator: L5178Y (tk+/tk-), Metabolic Activation: None, Method: Suspension/plate active; positive

C=CCCCCCCCCCCCC
inactive: [2] inactive; negative | Test System: AMES SALMONELLA TYPHIMURIUM, Strain/Indicator: TA98, Metabolic Activation: RAT, LIVER, S-9, AROCLOR, Method: STANDARD PLATE inactive; negative | [5] inactive; negative | Test System: AMES SALMONELLA TYPHIMURIUM, Strain/Indicator: TA100, Metabolic Activation: RAT, LIVER, S-9, AROCLOR, Method: STANDARD PLATE inactive; negative | Test System: AMES SALMONELLA TYPHIMURIUM, Strain/Indicator: UTH8413, Metabolic Activation: NONE, Method: STANDARD PLATE inactive; negative | Test System: AMES SALMONELLA TYPHIMURIUM, Strain/Indicator: UTH8413, Metabolic Activation: RAT, LIVER, S-9, AROCLOR, Method: STANDARD PLATE inactive; negative | Test System: AMES SALMONELLA TYPHIMURIUM, Strain/Indicator: UTH8414, Metabolic Activation: NONE, Method: STANDARD PLATE inactive; negative | Test System: AMES SALMONELLA TYPHIMURIUM, Strain/Indicator: UTH8414, Metabolic Activation: RAT, LIVER, S-9, AROCLOR, Method: STANDARD PLATE inactive; negative
